Test results taken from US11666642B2, “PDE5 compositions and methods for immunotherapy” (Obsidian Therapeutics, Inc., priority 2017, dated 2023).

How the values were obtained:
Assay type in all cases: cell-based, human
[1] = system: hPDE5 mutants fused to GFP in HCT116 cells; test: Vardenafil dose response 48 hours, fold change in GFP MFI over DMSO; conditions: 0.1 and 0.3 micro molar
Method: Combination mutants were generated as described in Example 9. […] Mean fluorescence intensity (MFI) of GFP was measured by FACS.

[2] = system: hPDE5 truncation mutants (R732L) fused to AcGFP in HCT 116 cells; test: Western blot for AcGFP of hPDE5 truncation mutants with Vardenafil; conditions: 10 μM Vardenafil, 24 hours
Method: Protein expression analysis of the truncation mutants was performed in parallel via western blot. […] GAPDH levels were also analyzed to ensure even protein loading.

[3] = system: hPDE5 mutants fused to GFP in HCT116 cells; test: Tadalafil dose response of combination mutants, MFI by FACS
Method: The response of hPDE5 combination mutants to increasing doses of Tadalafil was tested. HCT116 cells transduced with hPDE5 constructs were treated with Tadalafil for 24 hours at doses ranging from 0.14 to 100 μM. Mean fluorescence intensity (MFI) was measured by FACS. Parental HCT116 and cells expressing OT-hPDE5N-019 comprising hPDE5 wildtype construct were also included as controls. The response of the combination mutants to Tadalafil was compared to the response of the single mutant construct OT-hPDE5N-020. The stabilization ratio (SR) was calculated as the fold change in GFP intensity in Tadalafil treated samples compared to treatment with DMSO (i.e. in the absence of ligand) with the same construct. The destabilizing mutation coefficient was calculated as the fold change in GFP intensity in the hPDE5 mutant constructs compared to the hPDE5 wildtype construct (OT-hPDE5N-0019) in the absence of the ligand. Destabilizing mutation coefficient less than 1 are desirable. Stabilization ratios greater than 1 are desired in DDs.

[4] = system: hPDE5 mutants fused to GFP in HCT116 cells; test: Vardenafil dose response of combination mutants, MFI by FACS; conditions: for MFI / SR: 24 hours
Method: (§1) Mean fluorescence intensity (MFI) was measured by FACS. Parental HCT116 and cells expressing OT-hPDE5N-019 comprising hPDE5 wildtype construct were also included as controls. […] The destabilizing mutation coefficient ratio was calculated as the fold change in GFP intensity in the hPDE5 mutant constructs compared to the hPDE5 wildtype construct (OT-hPDE5N-019) in the absence of the ligand. Destabilizing mutation co-efficient ratios less than 1 are desirable. Stabilization ratios greater than 1 are desired in DDs.

[5] = system: hPDE5 mutants fused to GFP in HCT116 cells; test: Sildenafil dose response of combination mutants, MFI by FACS; conditions: for MFI / SR: 24 hours
Method: as §1, with “OT-hPDE5N-019” for “OT-hPDE5N-019 comprising hPDE5”, “coefficient” for “co-efficient”

[6] = system: hPDE5 truncation mutants (R732L) fused to AcGFP in HCT-116 cells; test: Expression of hPDE5 truncation mutants, GFP MFI by FACS
Description: Several truncation mutants of the full length hPDE5 were generated to identify regions beyond the […] catalytic domain that may serve as a template for identifying DDs. The truncation mutants tested included amino acids 535-860 of hPDE5 WT (E535-Q860), amino acids 535 to 836 of hPDE5 WT (E535-S836), amino acids 590 to 860 of hPDE5 WT (M590-Q860), amino acids 590 to 836 of hPDE5 WT (M590-S836), wherein the amino acids positions are with respect to SEQ ID NO. 1. The DD mutation R732L was incorporated into all truncation mutants and its destabilizing potential was compared to E535-Q860 wildtype by fusing the mutants to an SG linker and reporter, AcGFP. […] As a control, parental untransduced cells and cells expressing OT-hPDE5N-001, or OT-hPDE5N-028 were also included in the analysis. The mean fluorescence intensity (MFI) of GFP was analyzed by FACS. […] The destabilizing mutation coefficient was calculated as the fold change in GFP intensity in the hPDE5 mutant constructs compared to the hPDE5 wildtype construct (OT-hPDE5N-019) in the absence of the ligand. Destabilizing mutation coefficients less than 1 are desirable. Stabilization ratios greater than 1 are desired in DDs.

**Q.** Which results are given for “OT-hPDE5N-020: construct consisting of E535-Q860 amino acids of hPDE5 with the R732L mutant, SG linker, AcGFP; single mutant construct”?
**A.** ligand dependent stabilization (fold change in MFI over DMSO) at lower doses of Vardenafil [1]: observed at lower doses i.e. 0.1 and 0.3 micro molar concentrations of Vardenafil; AcGFP protein (western blot) with Vardenafil [2]: showed vardenafil dependent stabilization; MFI ([3]; DMSO, 24 hours, HCT116): 3806; destabilizing mutation coefficient ([3]; Tadalafil dose response experiment, absence of ligand, vs OT-hPDE5N-019): 0.1; MFI ([4]; DMSO, HCT116): 7829; SR ([4]; Vardenafil 0.04 μM vs DMSO): 1.88; MFI ([4]; Vardenafil 0.04 μM): 14745; SR ([4]; Vardenafil 0.12 μM vs DMSO): 2.15; MFI ([4]; Vardenafil 0.12 μM): 16866; SR ([4]; Vardenafil 0.37 μM vs DMSO): 3.17; MFI ([4]; Vardenafil 0.37 μM): 24847; SR ([4]; Vardenafil 1.11 μM vs DMSO): 3.94; MFI ([4]; Vardenafil 1.11 μM): 30879; SR ([4]; Vardenafil 3.33 μM vs DMSO): 4.54; MFI ([4]; Vardenafil 3.33 μM): 35564; SR ([4]; Vardenafil 10 μM vs DMSO): 4.99; MFI ([4]; Vardenafil 10 μM): 39089; SR ([4]; Vardenafil 30 μM vs DMSO): 9.62; MFI ([4]; Vardenafil 30 μM): 75323; destabilizing mutation coefficient ([4]; Vardenafil dose response experiment, absence of ligand, vs OT-hPDE5N-019): 0.13; MFI ([5]; DMSO, HCT116): 6172; SR ([5]; Sildenafil 0.04 μM vs DMSO): 0.86; MFI ([5]; Sildenafil 0.04 μM): 5299; SR ([5]; Sildenafil 0.12 μM vs DMSO): 1.04; MFI ([5]; Sildenafil 0.12 μM): 6441; SR ([5]; Sildenafil 0.37 μM vs DMSO): 2.06; MFI ([5]; Sildenafil 0.37 μM): 12739; SR ([5]; Sildenafil 1.11 μM vs DMSO): 2.58; MFI ([5]; Sildenafil 1.11 μM): 15952; SR ([5]; Sildenafil 3.33 μM vs DMSO): 3.82; MFI ([5]; Sildenafil 3.33 μM): 23549; SR ([5]; Sildenafil 10 μM vs DMSO): 4.49; MFI ([5]; Sildenafil 10 μM): 27693; SR ([5]; Sildenafil 30 μM vs DMSO): 7.78; MFI ([5]; Sildenafil 30 μM): 47992; destabilizing mutation co-efficient ratio ([5]; Sildenafil dose response experiment, absence of ligand, vs OT-hPDE5N-019): 0.1; ligand dependent stabilization (stabilization ratio) of truncation mutants ([6]; 10 μM Sildenafil or Vardenafil, 48 hours, HCT-116): strongest ligand dependent stabilization with both ligands; Sildenafil Stabilization ratio ([6]; 10 μM Sildenafil vs DMSO, 48 hours): 6.02; Vardenafil Stabilization ratio ([6]; 10 μM Vardenafil vs DMSO, 48 hours): 10.08; MFI Sildenafil ([6]; HCT-116, 10 μM Sildenafil, 48 hours): 55636; MFI Vardenafil ([6]; HCT-116, 10 μM Vardenafil, 48 hours): 93216; MFI DMSO ([6]; HCT-116, DMSO, 48 hours): 9248; destabilizing mutation coefficient ([6]; vs hPDE5 wildtype construct in absence of ligand): 0.14
